Source: the NIST ThermoML archive (doi:10.1016/j.jct.2005.03.020)

Assay: xn = mol fraction of the nth substance listed
Details: 298.15 K, 101.33 kPa, Liquid

CCOC(=O)CC [ethyl propanoate] + ClCCCl
Details	mass density [kg/m3]
x1 = 0.0458	1221.49
x1 = 0.0867	1201.01
x1 = 0.131	1179.33
x1 = 0.1761	1158.4
x1 = 0.225	1136.63
x1 = 0.2733	1116.14
x1 = 0.3272	1094.1
x1 = 0.3811	1073.16
x1 = 0.4371	1052.35
x1 = 0.4963	1031.27
x1 = 0.5583	1010.27
x1 = 0.6235	989.23
x1 = 0.69	968.72
x1 = 0.7598	948.13
x1 = 0.835	927.04
x1 = 0.9131	906.11

ClCCCCl [1,3-dichloropropane] + CCOC(C)=O
Details	mass density [kg/m3]
x2 = 0.0582	1160.94
x2 = 0.1136	1144.62
x2 = 0.1719	1127.58
x2 = 0.2292	1110.81
x2 = 0.2869	1094.08
x2 = 0.3444	1077.42
x2 = 0.4017	1061.01
x2 = 0.4609	1044.12
x2 = 0.5208	1027.15
x2 = 0.5839	1009.34
x2 = 0.6423	992.92
x2 = 0.7017	976.39
x2 = 0.7599	960.24
x2 = 0.8205	943.48
x2 = 0.8803	927.01
x2 = 0.9389	911.03

ClCCCCCl [1,4-dichlorobutane] + CCOC=O
Details	mass density [kg/m3]
x2 = 0.0818	1119.67
x2 = 0.1583	1106.59
x2 = 0.2305	1093.6
x2 = 0.2967	1081.3
x2 = 0.3635	1068.33
x2 = 0.4271	1055.54
x2 = 0.491	1042.19
x2 = 0.6081	1016.39
x2 = 0.6615	1003.97
x2 = 0.7146	991.26
x2 = 0.7671	978.22
x2 = 0.816	965.61
x2 = 0.8633	952.97
x2 = 0.91	940.24
x2 = 0.9551	927.47

ClCCCCCCl [1,5-dichloropentane] + CCOC(=O)CC
Details	mass density [kg/m3]
x2 = 0.0734	1081.12
x2 = 0.129	1070.38
x2 = 0.1956	1057.38
x2 = 0.2575	1045.16
x2 = 0.3202	1032.63
x2 = 0.4361	1008.96
x2 = 0.5001	995.63
x2 = 0.5582	983.34
x2 = 0.6155	971.03
x2 = 0.6735	958.42
x2 = 0.7283	946.34
x2 = 0.785	933.66
x2 = 0.8394	921.33
x2 = 0.8926	909.15
x2 = 0.9451	896.94

ClCCCCCCCl [1,6-dichlorohexane] + CCOC(=O)CC
Details	mass density [kg/m3]
x2 = 0.0733	1053.16
x2 = 0.144	1042.66
x2 = 0.2117	1032.32
x2 = 0.2775	1021.98
x2 = 0.3418	1011.56
x2 = 0.4104	1000.12
x2 = 0.5264	979
x2 = 0.5884	968.62
x2 = 0.7491	937.72
x2 = 0.8052	926.3
x2 = 0.8547	915.96
x2 = 0.905	905.21
x2 = 0.9513	894.99

CCOC=O [ethyl methanoate] + ClCCCl
Details	mass density [kg/m3]
x1 = 0.0604	1224.56
x1 = 0.1183	1204.73
x1 = 0.175	1185.45
x1 = 0.2911	1146.17
x1 = 0.3483	1126.98
x1 = 0.4068	1107.45
x1 = 0.4649	1088.21
x1 = 0.5246	1068.52
x1 = 0.5831	1049.26
x1 = 0.6432	1029.61
x1 = 0.7012	1010.71
x1 = 0.758	992.23
x1 = 0.817	973.15
x1 = 0.8778	953.5
x1 = 0.9362	934.65

ClCCCCl [1,3-dichloropropane] + CCOC=O
Details	mass density [kg/m3]
x2 = 0.076	1161.06
x2 = 0.1432	1145.36
x2 = 0.2073	1130.02
x2 = 0.2696	1114.94
x2 = 0.3338	1099.05
x2 = 0.394	1083.9
x2 = 0.4558	1068.05
x2 = 0.5152	1052.57
x2 = 0.5731	1037.18
x2 = 0.6297	1021.91
x2 = 0.6862	1006.34
x2 = 0.7413	990.94
x2 = 0.794	975.98
x2 = 0.8475	960.54
x2 = 0.8994	945.31
x2 = 0.9494	930.3

ClCCCCCCl [1,5-dichloropentane] + CCOC(C)=O
Details	mass density [kg/m3]
x2 = 0.078	1082.84
x2 = 0.1498	1071.08
x2 = 0.2187	1059.41
x2 = 0.2869	1047.48
x2 = 0.3508	1035.92
x2 = 0.4146	1024.01
x2 = 0.5355	1000.44
x2 = 0.5943	988.46
x2 = 0.6527	976.18
x2 = 0.7039	965.12
x2 = 0.7557	953.57
x2 = 0.8066	941.94
x2 = 0.8572	930.03
x2 = 0.9059	918.17
x2 = 0.9527	906.46

ClCCCCCCl [1,5-dichloropentane] + CCOC=O
Details	mass density [kg/m3]
x2 = 0.0925	1084.33
x2 = 0.173	1074.06
x2 = 0.2529	1063.2
x2 = 0.3276	1052.35
x2 = 0.3957	1041.79
x2 = 0.4618	1031.02
x2 = 0.5249	1020.19
x2 = 0.5835	1009.55
x2 = 0.6395	998.87
x2 = 0.6917	988.42
x2 = 0.7415	977.92
x2 = 0.7896	967.31
x2 = 0.836	956.62
x2 = 0.8791	946.24
x2 = 0.9211	935.6
x2 = 0.9595	925.4

ClCCCCl [1,3-dichloropropane] + CCOC(=O)CC
Details	mass density [kg/m3]
x2 = 0.0533	1159.49
x2 = 0.1039	1141.98
x2 = 0.1552	1124.63
x2 = 0.2595	1090.43
x2 = 0.3141	1073.08
x2 = 0.3691	1056.04
x2 = 0.4264	1038.67
x2 = 0.4849	1021.36
x2 = 0.6033	987.47
x2 = 0.666	970.14
x2 = 0.7288	953.17
x2 = 0.7937	935.99
x2 = 0.861	918.65
x2 = 0.9271	901.62
